{
  "source": "patent US7462324B2",
  "about": "“Measurement device and method for measuring electric signal from biological sample” (Panasonic Corporation, priority 2002, dated 2008)",
  "system": "rat artery smooth muscles (SM)",
  "test": "Intracellular potential of a rat artery smooth muscle cell on carbachol administration, voltage clamp with measurement device 10",
  "assay_type": "cell-based",
  "procedure": "As the biological sample 21, rat artery smooth muscles (SM) were used. As a solution to be injected into the measurement device 10, DMEM culture medium to which 10% FBS (fetal bovine serum) was added was used. An SM cell was inserted into the microelectrode 1 by performing the same operation as that of EXAMPLE 2, and then an intracellular potential when 100 μM carbachol, which was an analog of acetylcholine, was introduced as a solution was measured by a voltage clamp method.\nThe results were similar to those obtained by the known intracellular recording method.\nFIG. 13 is a histogram of standard deviation per 10 ms before and after a carbachol administration. The mean value and half width of the graph, obtained by approximating the histogram before and after a carbachol administration with a normal distribution are 0.185 and 0.04, respectively, before the administration and 0.545 and 0.21, respectively, after the administration. […] The reason for the increase was that by the administration of carbachol, ion channels of the […] was activated, and changes in conductance due to switching of the activated ion channels is expressed by voltage change. From FIG. 13, it was confirmed that with the measurement device 10, ion channel properties for a nerve stimulator can be determined as in the same manner in the known intracellular recording method.",
  "data": [
    {"smiles": "C[N+](C)(C)CCOC(N)=O", "note": "[carbachol]", "values": [
      {"measurement": "action potential in response to carbachol", "setting": "100 μM carbachol introduced as a solution, SM cell on microelectrode, DMEM + 10% FBS, FIG. 12", "value": "detected"},
      {"measurement": "mean value of histogram of standard deviation per 10 ms of the action potential (normal distribution approximation)", "setting": "after carbachol administration (100 μM), before administration 0.185, FIG. 13", "value": 0.545}
    ]}
  ]
}
